Measured values taken from patent publication US20230295234A1, “ANTIMICROBIAL PEPTIDOMIMETICS” (SPEXIS AG, priority 2020, published 2023).
Bridge positions count the residues as written; N and C are the ends. Square brackets hold non-standard residues; d marks the D form. Peptide text beside a SMILES is read from it. Gly(N-2-aminoethyl) = NCCNCC(=O)O; Hyp = O=C(O)[C@@H]1C[C@@H](O)CN1; Gly(N(CH2)3NH2) = NCCCNCC(=O)O; Pen = CC(C)(S)[C@H](N)C(=O)O; dDab = NCC[C@@H](N)C(=O)O; Dab = NCC[C@H](N)C(=O)O; Nlys = NCCCCNCC(=O)O

Tests used:
[1] = test system: human red blood cells (hRBC); test: Hemolysis of human red blood cells; assay type: cell-based; conditions: red cells of human, 1 h
How it was run: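 PBS-washed human red blood cells (20% v/v) were incubated with peptide at 200 μg/mL for 1 h at 37 °C with shaking. Supernatant OD was read at 540 nm after 8-fold dilution. Hemolysis is expressed as percent of the water control.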

[2] = test system: Escherichia coli ATCC 25922; conditions: ATCC 25922
How it was run: (§1)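 Two-fold serial dilutions of peptide, in water with polysorbate 80 (0.002% final), met bacteria adjusted to 0.5 McFarland then diluted to about 5×10^5 CFU/mL. Medium was cation-adjusted Mueller-Hinton II broth; peptide stocks were 1 mg/mL in sterile water.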

[3] = test system: Escherichia coli MCR-1 Af 45; conditions: MCR-1 Af 45
How it was run: as §1

[4] = test system: Klebsiella pneumoniae SSI3010; conditions: SSI3010
How it was run: as §1

| SMILES | Hemolysis at 0.2 g/L [1] [%] | Escherichia coli ATCC 25922 MIC [2] [µg/mL] | Escherichia coli MCR-1 Af 45 MIC [3] [µg/mL] | Klebsiella pneumoniae SSI3010 MIC [4] [µg/mL] |
| --- | --- | --- | --- | --- |
| CC[C@H](C)[C@H](NC(=O)[C@@H]1C[C@@H](O)CN1C(=O)[C@@H](NC(=O)CN(CCN)C(=O)CNCCCN)C(C)C)C(=O)N[C@H](C(=O)N[C@@H](Cc1ccc(O)cc1)C(=O)N[C@@H]1C(=O)N[C@@H](CC(N)=O)C(=O)N[C@@H](CCCNC(=N)N)C(=O)N[C@@H](CCN)C(=O)N[C@@H]([C@@H](C)O)C(=O)N[C@H](CCN)C(=O)N[C@@H](CCCCN)C(=O)N[C@H](C(=O)N[C@@H](Cc2ccc(O)cc2)C(=O)N[C@@H](CCCNC(=N)N)C(=O)N[C@@H](Cc2ccc(O)cc2)C(=O)O)CSSC1(C)C)[C@@H](C)O [Example 60, Norn-Ndab-Val-Hyp-Ile-Thr-Tyr-Pen-Asn-Arg-Dab-Thr-^DDab-Lys-Cys-Tyr-Arg-Tyr] (H-[Gly(N(CH2)3NH2)][Gly(N-2-aminoethyl)]V[Hyp]ITY[Pen]NR[Dab]T[dDab]KCYRY-OH; disulfide 8-15; N-terminus assumed) | 0 | 0.25 | 0.125 | 0.25 |
| CC[C@H](C)[C@H](NC(=O)[C@@H]1C[C@@H](O)CN1C(=O)[C@@H](NC(=O)CN(CCN)C(=O)CNCCCCN)C(C)C)C(=O)N[C@H](C(=O)N[C@@H](Cc1ccc(O)cc1)C(=O)N[C@@H]1C(=O)N[C@@H](CC(N)=O)C(=O)N[C@@H](CCCNC(=N)N)C(=O)N[C@@H](CCN)C(=O)N[C@@H]([C@@H](C)O)C(=O)N[C@H](CCN)C(=O)N[C@@H](CCCCN)C(=O)N[C@H](C(=O)N[C@@H](Cc2ccc(O)cc2)C(=O)N[C@@H](CCCNC(=N)N)C(=O)N[C@@H](Cc2ccc(O)cc2)C(=O)O)CSSC1(C)C)[C@@H](C)O [Example 61, Nlys-Ndab-Val-Hyp-Ile-Thr-Tyr-Pen-Asn-Arg-Dab-Thr-^DDab-Lys-Cys-Tyr-Arg-Tyr] (H-[Nlys][Gly(N-2-aminoethyl)]V[Hyp]ITY[Pen]NR[Dab]T[dDab]KCYRY-OH; disulfide 8-15) | 0 | 0.25 | 0.125 | 0.125 |
| CC[C@H](C)[C@H](NC(=O)CN(CCN)C(=O)[C@@H](NC(=O)CN(CCN)C(=O)[C@@H](N)CCCCN)C(C)C)C(=O)N[C@H](C(=O)N[C@@H](Cc1ccc(O)cc1)C(=O)N[C@@H]1C(=O)N[C@@H](CC(N)=O)C(=O)N[C@@H](CCCNC(=N)N)C(=O)N[C@@H](CCN)C(=O)N[C@@H]([C@@H](C)O)C(=O)N[C@H](CCN)C(=O)N[C@@H](CCCCN)C(=O)N[C@H](C(=O)N[C@@H](Cc2ccc(O)cc2)C(=O)N[C@@H](CCCNC(=N)N)C(=O)N[C@@H](Cc2ccc(O)cc2)C(=O)O)CSSC1(C)C)[C@@H](C)O [Example 62, Lys-Ndab-Val-Ndab-Ile-Thr-Tyr-Pen-Asn-Arg-Dab-Thr-^DDab-Lys-Cys-Tyr-Arg-Tyr] (H-K[Gly(N-2-aminoethyl)]V[Gly(N-2-aminoethyl)]ITY[Pen]NR[Dab]T[dDab]KCYRY-OH; disulfide 8-15) | 0 | 0.25 | 0.125 | 0.25 |
| CC[C@H](C)[C@H](NC(=O)[C@@H]1C[C@@H](O)CN1C(=O)[C@@H](NC(=O)[C@@H]1C[C@@H](O)CN1C(=O)[C@H](CCCCN)NC(=N)N)C(C)C)C(=O)N[C@H](C(=O)N[C@@H](Cc1ccc(O)cc1)C(=O)N[C@@H]1C(=O)N[C@@H](CC(N)=O)C(=O)N[C@@H](CCCNC(=N)N)C(=O)N[C@@H](CCN)C(=O)N[C@@H]([C@@H](C)O)C(=O)N[C@H](CCN)C(=O)N[C@@H](CCCCN)C(=O)N[C@H](C(=O)N[C@@H](CCN)C(=O)N[C@@H](CCCNC(=N)N)C(=O)N[C@@H](Cc2ccc(O)cc2)C(=O)O)CSSC1(C)C)[C@@H](C)O [Example 63, Gua-Lys-Hyp-Val-Hyp-Ile-Thr-Tyr-Pen-Asn-Arg-Dab-Thr-^DDab-Lys-Cys-Dab-Arg-Tyr] (HELM PEPTIDE1{[N=C(N)N[C@@H](CCCCN)C(=O)[*:2]].[Hyp].V.[Hyp].I.T.Y.[Pen].N.R.[Dab].T.[NCC[C@@H](N[*:1])C(=O)[*:2]].K.C.[Dab].R.Y}$PEPTIDE1,PEPTIDE1,8:R3-15:R3$$$V2.0) | 0 | 0.0625 | 0.0625 | 0.125 |
| CCCC[C@H](NC(=O)[C@H](CCCNC(=N)N)NC(=O)[C@H](CCC(N)=O)NC(=O)[C@@H]1CSSC[C@H](NC(=O)[C@H](Cc2ccc(O)cc2)NC(=O)[C@@H](NC(=O)[C@@H](NC(=O)[C@@H]2CCCN2C(=O)[C@@H](NC(=O)[C@@H]2CCCN2C(=O)[C@H](CCCCN)NC(=O)[C@@H](N)CCCCN)C(C)C)[C@@H](C)CC)[C@@H](C)CC)C(=O)N[C@@H](CC(N)=O)C(=O)N[C@@H](CCCNC(=N)N)C(=O)N[C@@H](CCN)C(=O)N[C@@H]([C@@H](C)O)C(=O)N[C@H](CCN)C(=O)N[C@@H](CCN)C(=O)N1)C(=O)O [Example 64] (HELM PEPTIDE1{K.K.P.V.P.I.I.Y.C.N.R.[Dab].T.[NCC[C@@H](N[*:1])C(=O)[*:2]].[Dab].C.Q.R.[Nle]}$PEPTIDE1,PEPTIDE1,9:R3-16:R3$$$V2.0) | 0 | 0.0625 | 0.125 | 0.25 |
| CCCC[C@H](NC(=O)[C@H](CCCNC(=N)N)NC(=O)[C@H](CCCNC(=N)N)NC(=O)[C@@H]1CSSC[C@H](NC(=O)[C@H](Cc2ccc(O)cc2)NC(=O)[C@@H](NC(=O)[C@@H](NC(=O)[C@@H]2CCCN2C(=O)[C@@H](NC(=O)[C@@H]2CCCN2C(=O)[C@H](CCCCN)NC(=O)[C@@H](N)CCCCN)C(C)C)[C@@H](C)CC)[C@@H](C)CC)C(=O)N[C@@H](CC(N)=O)C(=O)N[C@@H](CCCNC(=N)N)C(=O)N[C@@H](CCN)C(=O)N[C@@H]([C@@H](C)O)C(=O)N[C@H](CCN)C(=O)N[C@@H](CCN)C(=O)N1)C(=O)O [Example 65] (HELM PEPTIDE1{K.K.P.V.P.I.I.Y.C.N.R.[Dab].T.[NCC[C@@H](N[*:1])C(=O)[*:2]].[Dab].C.R.R.[Nle]}$PEPTIDE1,PEPTIDE1,9:R3-16:R3$$$V2.0) | 0 | ≤0.0625 | 0.0625 | 0.0625 |
| CCCC[C@H](NC(=O)[C@H](CCCNC(=N)N)NC(=O)[C@H](CCN)NC(=O)[C@@H]1CSSC[C@H](NC(=O)[C@H](Cc2ccc(O)cc2)NC(=O)[C@@H](NC(=O)[C@@H](NC(=O)[C@@H]2CCCN2C(=O)[C@@H](NC(=O)[C@@H]2CCCN2C(=O)[C@H](CCCCN)NC(=O)[C@@H](N)CCCCN)C(C)C)[C@@H](C)CC)[C@@H](C)CC)C(=O)N[C@@H](CC(N)=O)C(=O)N[C@@H](CCCNC(=N)N)C(=O)N[C@@H](CCN)C(=O)N[C@@H]([C@@H](C)O)C(=O)N[C@H](CCN)C(=O)N[C@@H](CCCCN)C(=O)N1)C(=O)O [Example 66] (HELM PEPTIDE1{K.K.P.V.P.I.I.Y.C.N.R.[Dab].T.[NCC[C@@H](N[*:1])C(=O)[*:2]].K.C.[Dab].R.[Nle]}$PEPTIDE1,PEPTIDE1,9:R3-16:R3$$$V2.0) | 0 | 0.03125 | 0.0625 | 0.125 |
| CCCC[C@H](NC(=O)[C@H](CCCNC(=N)N)NC(=O)[C@H](CCC(N)=O)NC(=O)[C@@H]1CSSC[C@H](NC(=O)[C@H](Cc2ccc(O)cc2)NC(=O)[C@@H](NC(=O)[C@@H](NC(=O)[C@@H]2CCCN2C(=O)[C@@H](NC(=O)[C@@H]2CCCN2C(=O)[C@H](CCCCN)NC(=O)[C@@H](N)CCCCN)C(C)C)[C@@H](C)CC)[C@@H](C)CC)C(=O)N[C@@H](CC(N)=O)C(=O)N[C@@H](CCCNC(=N)N)C(=O)N[C@@H](CCN)C(=O)N[C@@H]([C@@H](C)O)C(=O)N[C@H](CCN)C(=O)N[C@@H](CCCCN)C(=O)N1)C(=O)O [Example 67] (HELM PEPTIDE1{K.K.P.V.P.I.I.Y.C.N.R.[Dab].T.[NCC[C@@H](N[*:1])C(=O)[*:2]].K.C.Q.R.[Nle]}$PEPTIDE1,PEPTIDE1,9:R3-16:R3$$$V2.0) | 0 | 0.125 | 0.25 | 0.25 |
| CCCC[C@H](NC(=O)[C@H](CCCNC(=N)N)NC(=O)[C@H](CCCNC(=N)N)NC(=O)[C@@H]1CSSC[C@H](NC(=O)[C@H](Cc2ccc(O)cc2)NC(=O)[C@@H](NC(=O)[C@@H](NC(=O)[C@@H]2CCCN2C(=O)[C@@H](NC(=O)[C@@H]2CCCN2C(=O)[C@H](CCCCN)NC(=O)[C@@H](N)CCCCN)C(C)C)[C@@H](C)CC)[C@@H](C)CC)C(=O)N[C@@H](CC(N)=O)C(=O)N[C@@H](CCCNC(=N)N)C(=O)N[C@@H](CCN)C(=O)N[C@@H]([C@@H](C)O)C(=O)N[C@H](CCN)C(=O)N[C@@H](CCCCN)C(=O)N1)C(=O)O [Example 68] (HELM PEPTIDE1{K.K.P.V.P.I.I.Y.C.N.R.[Dab].T.[NCC[C@@H](N[*:1])C(=O)[*:2]].K.C.R.R.[Nle]}$PEPTIDE1,PEPTIDE1,9:R3-16:R3$$$V2.0) | 0 | 0.03125 | 0.0625 | ≤0.125 |
